Experimental data: patent US9783536B2, “Nitrogen-containing heterocyclic compound or salt thereof” (FUJIFILM Corporation, priority 2013, dated 2017)
Structures can show the parent of a compound that is named as a salt. Where two headings read alike, the source gives them in different places.

What was measured:
[1] = target: T1, GST fusion human ERK2 protein (Homo sapiens, UniProt P28482); assay: ERK2 enzyme assay (2); type: biochemical; conditions: read-out: ERK2 enzyme inhibitory activity (2)
T1 construct: purchased Carna Biosciences, Inc; host or cells: E. coli expression system
Outline: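 GST-tagged human ERK2 expressed in E. coli (1.25 nmol/L) was preincubated with compound for 15 min at room temperature in pH 7.5 Hepes buffer with MgCl2, DTT and Brij35. Reaction with FL-Peptide 8 (final 4.25 μmol/L) and ATP (final 1 mmol/L) ran 120 min at 25 °C; EDTA stopped it, and phosphorylated peptide was quantified by mobility-shift separation to derive IC50.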

[2] = target: T2, human PI3Kα protein (Homo sapiens, UniProt P42336); assay: PI3Kα enzyme assay (ADP-Glo); type: biochemical; conditions: read-out: PI3Kα enzyme inhibitory activity
T2 construct: purchased Carna Biosciences, Inc; host or cells: baculovirus expression system
Outline: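 Biotinylated human PI3Kα (baculovirus-expressed, 4.5 nmol/L) pre-incubated 15 min with compound in Tris-HCl pH 7.5, MgCl2, BSA; reaction 60 min at 25° C with 50 μmol/L PIP2 and 100 μmol/L ATP final. ADP quantified by ADP-Glo luminescence; IC50 calculated.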

T2 sequence (P42336 whole entry): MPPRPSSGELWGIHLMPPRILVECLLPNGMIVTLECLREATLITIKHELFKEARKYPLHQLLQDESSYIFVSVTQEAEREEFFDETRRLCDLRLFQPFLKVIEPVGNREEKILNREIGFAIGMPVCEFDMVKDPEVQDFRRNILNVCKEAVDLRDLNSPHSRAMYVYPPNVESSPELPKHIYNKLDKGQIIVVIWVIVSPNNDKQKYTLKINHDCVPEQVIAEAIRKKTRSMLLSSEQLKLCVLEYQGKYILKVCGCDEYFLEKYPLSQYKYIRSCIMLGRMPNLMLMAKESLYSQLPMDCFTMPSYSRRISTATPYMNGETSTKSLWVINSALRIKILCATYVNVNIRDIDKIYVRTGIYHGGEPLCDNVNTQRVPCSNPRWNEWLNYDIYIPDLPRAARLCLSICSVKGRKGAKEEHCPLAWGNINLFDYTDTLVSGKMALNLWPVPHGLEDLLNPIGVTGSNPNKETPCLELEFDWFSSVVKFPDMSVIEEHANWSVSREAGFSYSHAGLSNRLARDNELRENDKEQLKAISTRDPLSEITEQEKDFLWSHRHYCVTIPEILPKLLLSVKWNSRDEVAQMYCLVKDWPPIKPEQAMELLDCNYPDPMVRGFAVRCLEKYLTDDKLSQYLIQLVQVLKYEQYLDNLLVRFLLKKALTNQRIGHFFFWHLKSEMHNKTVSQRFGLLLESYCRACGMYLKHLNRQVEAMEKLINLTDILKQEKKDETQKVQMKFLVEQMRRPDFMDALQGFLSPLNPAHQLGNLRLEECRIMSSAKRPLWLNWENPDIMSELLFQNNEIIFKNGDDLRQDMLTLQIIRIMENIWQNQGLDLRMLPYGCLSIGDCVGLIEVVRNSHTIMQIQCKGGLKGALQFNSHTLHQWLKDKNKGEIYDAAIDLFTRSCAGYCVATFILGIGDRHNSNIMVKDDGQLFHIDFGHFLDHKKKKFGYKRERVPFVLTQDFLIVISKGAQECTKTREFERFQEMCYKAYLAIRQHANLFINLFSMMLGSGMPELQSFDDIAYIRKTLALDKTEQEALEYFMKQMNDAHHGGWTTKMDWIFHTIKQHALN
T2 sequence (P27986 whole entry partner): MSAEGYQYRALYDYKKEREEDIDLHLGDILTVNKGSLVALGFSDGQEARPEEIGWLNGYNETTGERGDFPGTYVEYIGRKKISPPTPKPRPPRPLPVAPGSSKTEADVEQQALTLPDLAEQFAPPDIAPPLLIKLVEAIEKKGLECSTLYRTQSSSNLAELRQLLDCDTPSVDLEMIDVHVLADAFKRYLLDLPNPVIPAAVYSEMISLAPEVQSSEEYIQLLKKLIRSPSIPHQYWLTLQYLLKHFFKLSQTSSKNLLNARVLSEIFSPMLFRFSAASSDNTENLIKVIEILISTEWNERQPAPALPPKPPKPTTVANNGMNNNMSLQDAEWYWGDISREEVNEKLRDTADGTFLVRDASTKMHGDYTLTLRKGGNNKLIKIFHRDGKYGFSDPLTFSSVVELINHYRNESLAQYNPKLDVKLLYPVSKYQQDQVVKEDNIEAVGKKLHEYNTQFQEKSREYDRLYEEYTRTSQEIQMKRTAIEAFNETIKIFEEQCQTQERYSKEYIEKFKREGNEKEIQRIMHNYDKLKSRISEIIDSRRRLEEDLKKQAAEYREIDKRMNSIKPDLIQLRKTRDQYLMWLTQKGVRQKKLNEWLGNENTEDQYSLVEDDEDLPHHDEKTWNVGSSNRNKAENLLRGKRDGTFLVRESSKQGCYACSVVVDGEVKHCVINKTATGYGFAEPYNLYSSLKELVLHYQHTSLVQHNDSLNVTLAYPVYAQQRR
T1 sequence (P28482 whole entry, the tested form may be a part): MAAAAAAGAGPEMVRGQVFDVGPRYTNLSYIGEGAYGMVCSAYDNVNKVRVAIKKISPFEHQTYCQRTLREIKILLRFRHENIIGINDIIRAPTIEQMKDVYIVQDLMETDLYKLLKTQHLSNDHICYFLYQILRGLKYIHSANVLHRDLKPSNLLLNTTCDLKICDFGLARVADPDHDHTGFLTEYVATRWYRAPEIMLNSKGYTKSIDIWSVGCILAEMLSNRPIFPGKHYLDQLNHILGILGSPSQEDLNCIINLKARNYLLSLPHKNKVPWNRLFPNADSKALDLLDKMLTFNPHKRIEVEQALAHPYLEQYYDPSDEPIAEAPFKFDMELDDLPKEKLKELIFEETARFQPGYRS

With CC(C)c1cnnc(Nc2ccc3ncc(-c4cnn(CCCN5CC(OCC6CC6)C5)c4)cc3n2)c1 [Example 0709] the IC50 ([1]; ERK2 enzyme assay (2)) was under 1000 nM and the IC50 [2] was under 1000 nM.
CCN(CCO)c1cnnc(Nc2ccc3ncc(-c4cnn(C)c4)cc3n2)c1 [Example 0525] gave an IC50 ([1]; ERK2 enzyme assay (2)) of under 1000 nM and an IC50 [2] of under 1000 nM.
Compound CC(C)c1cnnc(Nc2ccc3ncc(-c4ccn[nH]4)cc3n2)c1 [Example 0622, N-(5-isopropylpyridazin-3-yl)-7-(1H-pyrazol-5-yl)-1,5-naphthyridine-2-amine] has an IC50 ([1]; ERK2 enzyme assay (2)) of under 1000 nM and an IC50 [2] of under 1000 nM.
Compound CC(C)c1cnnc(Nc2ccc3ncc(-n4cnc(CCNC(=O)OC(C)(C)C)c4)cc3n2)c1 [Example 0505, tert-Butyl (2-(1-(6-((5-isopropylpyridazin-3-yl)amino)-1,5-naphthyridin-3-yl)-1H-imidazol-4-yl)ethyl)carbamate] has an IC50 ([1]; ERK2 enzyme assay (2)) of under 1000 nM and an IC50 [2] of 1000 to 10000 nM.
With Cc1ccncc1-c1nn(C)cc1-c1cnc2ccc(Nc3cc(C(C)C)cnn3)nc2c1 [Example 0736] the IC50 ([1]; ERK2 enzyme assay (2)) was 1000 to 10000 nM and the IC50 [2] was under 1000 nM.
In the case of CC(C)N1CC(OCCn2cc(-c3cnc4ccc(Nc5cc(CC6CCCCC6)cnn5)nc4c3)cn2)C1 [Example 0819], the IC50 ([1]; ERK2 enzyme assay (2)) is reported as under 1000 nM and the IC50 [2] is reported as under 1000 nM.
In the case of CC(C)c1cnnc(Nc2ccc3ncc(-c4cnn(CC#N)c4)cc3n2)c1 [Example 0928, 2-(4-(6-((5-isopropylpyridazin-3-yl)amino)-1,5-naphthyridin-3-yl)-1H-pyrazol-1-yl)acetonitrile], the IC50 [1] is reported as under 1000 nM and the IC50 [2] is reported as under 1000 nM.
CC(C)c1cnnc(Nc2ccc3ncc(-c4cn(C)nc4NCc4cccnc4)cc3n2)c1 [Example 0833] was tested, and the IC50 ([1]; ERK2 enzyme assay (2)) was under 1000 nM and the IC50 [2] was under 1000 nM.
Work on CC(C)c1cnnc(Nc2ccc3ncc(-c4cnn(Cc5cncnc5)c4)cc3n2)c1 [Example 0722] yielded an IC50 ([1]; ERK2 enzyme assay (2)) of under 1000 nM and an IC50 [2] of under 1000 nM.
With CCN(CC)c1nn(C)cc1-c1cnc2ccc(Nc3cc(C(C)C)cnn3)nc2c1 [Example 0944] the IC50 [1] was under 1000 nM and the IC50 [2] was under 1000 nM.
Compound CC(C)c1cnnc(Nc2ccc3ncc(N4C5CCC4COC5)cc3n2)c1 [Example 0901] has an IC50 [1] of under 1000 nM and an IC50 [2] of 1000 to 10000 nM.
In the case of CC(C)c1cnnc(Nc2ccc3ncc(-c4cn(C)nc4NCc4cnn(C)c4)cc3n2)c1 [Example 0836], the IC50 ([1]; ERK2 enzyme assay (2)) is reported as 1000 to 10000 nM and the IC50 [2] is reported as under 1000 nM.
CC(C)c1cnnc(Nc2ccc3ncc(N)cc3n2)c1 [Example 0623, N^2-(5-isopropylpyridazin-3-yl)-1,5-naphthyridine-2,7-diamine] was tested, and the IC50 ([1]; ERK2 enzyme assay (2)) was 1000 to 10000 nM and the IC50 [2] was 1000 to 10000 nM.
In the case of CC(C)c1cnnc(Nc2ccc3ncc(-c4cn(C)nc4-c4ccnc(N5CCOCC5)c4)cc3n2)c1 [Example 0749, N-(5-isopropylpyridazin-3-yl)-7-(1-methyl-3-(2-morpholinopyridin-4-yl)-1H-pyrazol-4-yl)-1,5-naphthyridine-2-amine], the IC50 ([1]; ERK2 enzyme assay (2)) is reported as under 1000 nM and the IC50 [2] is reported as under 1000 nM.
For CC(C)c1cnnc(Nc2ccc3ncc(-c4cn(C)nc4CN4CCN(C)CC4)cc3n2)c1 [Example 0912, N-(5-isopropylpyridazin-3-yl)-7-(1-methyl-3-((4-methylpiperazin-1-yl)methyl)-1H-pyrazol-4-yl)-1,5-naphthyridine-2-amine], the IC50 [1] was under 1000 nM and the IC50 [2] was under 1000 nM.
For Cn1cc(-c2cnc3ccc(Nc4cc(C5(C)CC5)cnn4)nc3c2)cn1 [Example 0633], the IC50 ([1]; ERK2 enzyme assay (2)) was under 1000 nM and the IC50 [2] was under 1000 nM.
In the case of CC(C)c1cnnc(Nc2ccc3ncc(-c4cnn(CC5CCNCC5)c4)cc3n2)c1 [Example 0485, trifluoroacetic acid salt of N-(5-isopropylpyridazin-3-yl)-7-(1-(piperidin-4-ylmethyl)-1H-pyrazol-4-yl)-1,5-naphthyridine-2-amine], the IC50 ([1]; ERK2 enzyme assay (2)) is reported as under 1000 nM and the IC50 [2] is reported as under 1000 nM.
In the case of CC(C)c1cnnc(Nc2ccc3ncc(NC4(C)CCC4)cc3n2)c1 [Example 0888], the IC50 ([1]; ERK2 enzyme assay (2)) is reported as 1000 to 10000 nM and the IC50 [2] is reported as 1000 to 10000 nM.
For C=Cn1cc(-c2cnc3ccc(Nc4cc(C(C)C)cnn4)nc3c2)cn1 [Example 0610, N-(5-isopropylpyridazin-3-yl)-7-(1-vinyl-1H-pyrazol-4-yl)-1,5-naphthyridine-2-amine], the IC50 ([1]; ERK2 enzyme assay (2)) was under 1000 nM and the IC50 [2] was under 1000 nM.
